Earlier results, collected in US8735434B2, “Compounds as cannabinoid receptor ligands” (priority 2007, dated 2014).

What was measured:
animal models = details: acute thermal pain, persistent pain, inflammatory pain, neuropathic pain
rodent models = details: neuropathic, incisional, chronic and acute inflammatory pain
rat = rat formalin model of persistent pain
microglial = details: in vitro
[1] = system: apolipoprotein E knockout mice
mice = details: model for post-menopausal osteoporosis

Compound: CN1CCCCC1Cn1cc(C(=O)c2cc([N+](=O)[O-])ccc2I)c2ccccc21 (stereo not drawn) [AM-1241]
- analgesic efficacy (animal models): robust analgesic efficacy

Compound: COc1ccc2c(c1)c(CCN1CCOCC1)c(C)n2C(=O)c1cccc(Cl)c1Cl [GW405833]
- efficacy in pain models (rodent models): efficacious

Compound: CCCCCCC(C)(C)c1cc(OC)c([C@@H]2C=C(CO)[C@@H]3C[C@H]2C3(C)C)c(OC)c1 [HU-308]
- antinociceptive response (rat): elicits an antinociceptive response

Compound: CCCC(C)(C)c1ccc2c(c1)OC(C)(C)[C@@H]1CC=C(C)C[C@@H]21 [JWH-133]
- effect on β-amyloid-induced microglial activation and neurotoxicity (microglial): abrogated

Compound: (−)-Δ^9-Tetrahydrocannabinol [THC]
- progression of atherosclerotic lesions ([1]; low doses): slowed the progression of atherosclerotic lesions

Compound: SR144528
- block of the JWH-133 effects on microglial activation and neurotoxicity (microglial; against JWH-133): can be blocked
- effect on osteoclast activity (osteoclast): inhibit osteoclast activity
- effect on ovariectomy-induced bone loss (mice): reverse ovariectomy-induced bone loss
- inhibition of the THC effects on atherosclerotic lesions ([1]; against THC): these effects were inhibited
